# Test results taken from patent US20240190994A1, “FUSION PROTEIN BETWEEN ANTIGEN-BINDING MOLECULE AND STREPTAVIDIN VARIANT” (The University of Tokyo, priority 2021, published 2024).
# Experiments:
# [1] = system: KPL-4 xenograft tumor site, skin and major organs; assay: pathological analysis (H & E histology) of xenograft mouse models; format: in vivo, BALB/cSlc-nu/nu nude mice; conditions: 97th day
# Excerpt: Skin samples from xenograft tumor sites, and samples from other important organs including lung, heart, kidney, liver and gastrointestinal tract, were obtained from the mice. […] Stained slides were dehydrated again by being immersed in ethanol and then being immersed in xylene. […] The H & E-stained slides were histologically examined using the OLYMPUS cellSens Standard system (OLYMPUS, Tokyo, Japan).
# [2] = system: KPL-4 xenograft (HER2-positive breast cancer); assay: in vivo breast cancer tumor model experiment, tumor volume; set-up: species or system BALB/cSlc-nu/nu nude mice
# Experimental: The KPL-4 cell line was maintained in DMEM (low glucose) (FUJIFILM Wako Pure Chemical Corporation, Osaka, Japan) supplemented with 10% FBS, 100 U/mL penicillin, and 100 μg/mL streptomycin (#15140122, Thermo Fisher Scientific, Waltham, MA, USA) (Kurebayashi J, Otsuki T, Tang CK, et al. Isolation and characterization of a new human breast cancer cell line, KPL-4, expressing the Erb B family receptors and interleukin-6. Br J Cancer. 1999; 79: 707-717. doi:10.1038/sj.bjc.6690114). The KPL-4 cells (7,500,000) were subcutaneously transplanted into the thigh of BALB/cSlc-nu/nu nude mice (Sankyo Lab Service, Inc., Tokyo, Japan). Proliferation of the subcutaneous tumor was monitored by measuring a tumor volume (0.5×length×width^2) using Vernier calipers, and the body weight of the animals was then monitored as an indicator of treatment-related toxicity.
# In this study, in order to evaluate tumor recurrence, the observation period was set to be […] after the initial treatment. […] Finally, the xenograft mouse models were sacrificed at 97 days after the treatment, namely, at 19 days or more after the second treatment.
# Preparation of ZHER2:342-Cupid-His and Psyche-Ax-SiPC was as previously reported (Yamatsugu K, Katoh H, Yamashita T, et al., Antibody mimetic drug conjugate manufactured by high-yield Protein Expr Purif. 2022; 192: 106043. doi:10.1016/j.pep.2021 106043). Briefly speaking, Psyche-Ax-SiPC solubilized in dimethyl sulfoxide at a concentration of 5 mM was preserved as a stock solution at −80° C. In order to prepare a complex, ZHER2:342-Cupid-His and Psyche-Ax-SiPC were mixed with each other at a molar ratio of 1:2 in a dark place on ice for 10 minutes. A concentrate of ZHER2:342-Cupid-His-Ax-SiPC was diluted using a phosphate-buffered saline.
# Twenty hours after the injection, the mice in the ZHER2:342-Cupid-His-Ax-SiPC group were irradiated with a 690-nm light emitting diode light (Yamato Scientific Co., Ltd., Tokyo, Japan) at 230 J/cm^−2. Forty-eight hours after the initial light irradiation, the tumor was irradiated again in the same manner as that described above.
substance,measurement,setting,value
trastuzumab emtansine [Kadcyla],pathological response,[1],pathological complete remission was achieved
same,metastatic tumors in lymph nodes or distant organs,[1]; FIG. 13 and FIG. 14,No metastatic tumors were observed
same,residual tumor cells in the subcutaneous region around the xenograft tumor site,"[1]; n=10, FIG. 13 and FIG. 14",no residual tumor cells were observed
same,tumor size after the first treatment,"[2]; Kadcyla 300 μg/mouse, ZHER2:342-Cupid-His-Ax-SiPC 150 μg/mouse with 690-nm light, n=10, FIG. 11",a reduction in the tumor size was observed
same,cases with tumor volume decreased to 0 mm^3,"[2]; at 21 days after the injection, n=10",1 case
same,course of tumor volume after the treatment,"[2]; single administration, FIGS. 11B-D",gradually decreased
same,tumor size in the long term after single treatment,[2]; up to 2 months after the injection,steady decrease in the tumor size
